Experimental findings from patent publication US8871934B2, “Fluorene compound and pharmaceutical use thereof” (Japan Tobacco Inc., priority 2008, dated 2014) are described below.

The target of this test is human PDHK2 (hPDHK2) (Homo sapiens (Human), UniProt Q15119). Kind of test: Inhibitory action of PDHK activity in vitro (kinase reaction, residual PDH activity measured). The format is biochemical. The procedure:
In the case of human PDHK2 (hPDHK2, Genbank Accession No. NM_002611), modified hPDHK2 cDNA wherein FLAG-Tag sequence is added to the N terminal by a polymerase linkage reaction was prepared based on hPDHK2 cDNA clone (pReceiver-M01/PDK2-GeneCopoeia), and cloned into a vector (pET17b-Novagen). The recombinant construct was transformed into Escherichia coli (DH5α-TOYOBO). The recombinant clones were identified, plasmid DNA was isolated and subjected to the DNA sequence analysis. One clone which had the expected nucleic acid sequence was selected for expression work.
During the assay, the hPDHK2 enzyme concentration was set to the minimal concentration at which PDH is inhibited the most.
0.05 U/mL PDH (porcine heart PDH complex, Sigma P7032) and 1.6 μg/mL hPDHK2 were mixed in a buffer (50 mmol/L 3-morpholinopropanesulfonic acid (pH 7.0), 20 mmol/L dipotassium hydrogen phosphate, 60 mmol/L potassium chloride, 2 mmol/L magnesium chloride, 0.4 mmol/L EDTA, and 0.2% Pluronic F-68, 2 mmol/L dithiothreitol), the mixture was incubated at 4° C. overnight to give PDH/hPDHK2 complex. The test compound was diluted with dimethyl sulfoxide (DMSO). PDH/hPDHK2 complex (20 μL), test compound (1.5 μL) and 3.53 μmol/L ATP (diluted with buffer, 8.5 μL) were added to a half area 96 well UV-transparent microplate (Corning 3679), and PDHK reaction was performed at room temperature for 45 min. Instead of the test compound, DMSO (1.5 μL) was added to a control well. DMSO (1.5 μL) was added instead of the test compound to a blank well for the measurement of the maximum rate of PDH reaction, and hPDHK2 was not added. Than, 10 μL of substrates (5 mmol/L sodium pyruvate, 5 mmol/L Coenzyme A, 12 mmol/L NAD, and 5 mmol/L thiamine pyrophosphate, diluted with buffer) was added. The mixture was incubated at room temperature for 90 min, and the residual PDH activity was measured. The absorbance at 340 nm before and after PDH reaction was measured on a microplate reader to detect NADH produced by the PDH reaction. The PDHK inhibitory rate (%) of the test compound was calculated from the formula [{(PDH activity of test compound—PDH activity of control)/PDH activity of blank—PDH activity of control)}×100]. The IC50 value was calculated from the concentrations of the test compound at two points enclosing 50% inhibition of the PDHK activity.

Setting [1] is: PDHK inhibitory activity, class symbol of IC50.
The mark [2] stands for this setting: read-out: PDHK inhibitory activity IC50.
Setting [3] is: read-out: PDHK inhibitory activity (class symbol).
Where [4] appears, read: PDHK inhibitory activity (class symbol).
[5] abbreviates: class symbol of IC50, read-out: PDHK inhibitory activity.

SMILES strings stand for the structures. Where two headings read alike, the source gives them in different places. Some results are limits rather than exact numbers.

As for `O=C(O)CCCOc1cc(Br)c2c(c1)C(O)(C(F)(F)F)c1ccccc1-2` (stereo not drawn) [compound 404], the IC50 is 100 to 1000 nM under setting [1] and 195 nM under setting [2].

Turning to `CC(O)c1cc(-c2cnn(C)c2)cc2c1-c1ccccc1C2(O)C(F)(F)F` (stereo not drawn) [compound 598], the IC50 by setting is: under setting [1], 100 to 1000 nM; under setting [2], 653 nM.

On to `NC(=O)Cn1cc(-c2ccc3c(c2)C(O)(C(F)(F)F)c2cccc(CO)c2-3)cn1` (stereo not drawn) [compound 609], for which the IC50 under setting [3] is more than 1000 nM and the IC50 under setting [2] is more than 1000 nM.

For `Cn1cc(-c2cc(C#CCO)c3c(c2)C(O)(C(F)(F)F)c2ccccc2-3)cn1` (stereo not drawn) [compound 603], the IC50 runs as follows: under setting [4], 100 to 1000 nM; under setting [2], 228 nM.

Consider `CCNC(=O)c1ccc2c(c1)-c1ccccc1C2(O)C(F)(F)F` (stereo not drawn) [compound 72], for which the IC50 is, setting by setting: under setting [1], more than 1000 nM; under setting [2], 4420 nM.

`CC(=O)N(C)C(C)COc1ccc2c(c1)C(O)(C(F)(F)F)c1ccccc1-2` (stereo not drawn) [compound 381]: the IC50 was 100 to 1000 nM under setting [1] and 495 nM under setting [2].

For `CNC1CCN(C(=O)c2ccc3c(c2)C(O)(C(F)(F)F)c2ccccc2-3)C1` (stereo not drawn) [compound 228], the IC50 under setting [1] is more than 1000 nM and the IC50 under setting [2] amounted to 2190 nM.

In the case of `OC1(C(F)(F)F)c2ccccc2-c2ccc(-c3cnco3)cc21` (stereo not drawn) [compound 245], the IC50 is, setting by setting: under setting [1], 100 to 1000 nM; under setting [2], 190 nM.

In the case of `Cn1cc(-c2cc(OCC(=O)N3CC(CO)C3)cc3c2-c2ccccc2C3(O)C(F)(F)F)cn1` (stereo not drawn) [compound 439], the IC50 is less than 100 nM under setting [1] and 34 nM under setting [2].

Consider `O=C(c1ccc2c(c1)C(O)(C(F)(F)F)c1ccccc1-2)N1CCOCC1` (stereo not drawn) [compound 127], for which the IC50 was more than 1000 nM under setting [1] and more than 10000 nM under setting [2].

For the molecule `COc1cc(C(N)=O)c2c(c1)C(O)(C(F)(F)F)c1ccccc1-2` (stereo not drawn) [compound 626], the IC50 by setting is: under setting [4], 100 to 1000 nM; under setting [2], 674 nM.

Regarding `CNC(=O)COc1ccc2c(c1)C(O)(C(F)(F)F)c1ccccc1-2` (stereo not drawn) [compound 289], the IC50 by setting is: under setting [1], 100 to 1000 nM; under setting [2], 641 nM.

For the molecule `CCn1cc(-c2ccc3c(c2)C(O)(C(F)(F)F)c2cccc(CO)c2-3)cn1` (stereo not drawn) [compound 597], the IC50 by setting is: under setting [5], more than 1000 nM; under setting [2], more than 1000 nM.

As for `Cc1cnc2c(c1)C(O)(C(F)(F)F)c1ccccc1-2` (stereo not drawn) [compound 196], the IC50 by setting is: under setting [1], 100 to 1000 nM; under setting [2], 475 nM.

Turning to `CCCOC(=O)c1cccc2c1-c1ccccc1C2(O)C(F)(F)F` (stereo not drawn) [compound 59], the IC50 under setting [1] is 100 to 1000 nM and the IC50 under setting [2] turned out to be 772 nM.

As for `O=C(c1ccc2c(c1)C(O)(C(F)(F)F)c1ccccc1-2)c1cccs1` (stereo not drawn) [compound 99], the IC50 under setting [1] lay within 100 to 1000 nM and the IC50 under setting [2] is 718 nM.

Regarding `Cn1cc(-c2cc(OCCCCO)cc3c2-c2ccccc2C3(O)C(F)(F)F)cn1` (stereo not drawn) [compound 426], the IC50 reads like this: under setting [1], less than 100 nM; under setting [2], 24 nM.

For `NC(=O)c1cccc(-c2ccc3c(c2)C(O)(C(F)(F)F)c2ccccc2-3)c1` (stereo not drawn) [compound 156], the IC50 under setting [1] lay in the range of 100 to 1000 nM and the IC50 under setting [2] came out at 464 nM.

`CNC(=O)COc1cc(Br)c2c(c1)C(O)(C(F)(F)F)c1ccccc1-2` (stereo not drawn) [compound 438]: the IC50 under setting [1] was in the range of 100 to 1000 nM and the IC50 under setting [2] was 112 nM.

For `COc1cc(CO)c2c(c1)C(O)(C(F)(F)F)c1ccccc1-2` (stereo not drawn) [compound 627], the IC50 under setting [3] is more than 1000 nM and the IC50 under setting [2] is more than 1000 nM.

Take `CCOc1cc(-c2cnn(CCC(=O)O)c2)c2c(c1)C(O)(C(F)(F)F)c1ccccc1-2` (single isomer, unassigned) [compound 581]: the IC50 by setting is: under setting [1], less than 100 nM; under setting [2], 19 nM.

On to `N#Cc1ccc(-c2ccc3c(c2)C(O)(C(F)(F)F)c2ccccc2-3)cc1` (stereo not drawn) [compound 224], for which the IC50 is 100 to 1000 nM under setting [1] and 214 nM under setting [2].

Consider `CC(C)(C)CCc1cc(-c2cnn(C(CO)CO)c2)c2c(c1)C(O)(C(F)(F)F)c1ccccc1-2` (stereo not drawn) [compound 666], for which the IC50 was less than 100 nM under setting [4] and 27 nM under setting [2].

On to `Cc1ncc(-c2cccc3c2-c2ccccc2C3(O)C(F)(F)F)o1` (stereo not drawn) [compound 275], for which the IC50 was 100 to 1000 nM under setting [1] and 278 nM under setting [2].

For the molecule `CN(C)C(=O)Cn1cc(-c2cccc3c2-c2ccccc2C3(O)C(F)(F)F)cn1` (stereo not drawn) [compound 495], the IC50 was 100 to 1000 nM under setting [1] and 119 nM under setting [2].

`COc1ccc(-c2ccc3c(c2)C(O)(C(F)(F)F)c2ccccc2-3)cc1` (stereo not drawn) [compound 172]: the IC50 is, setting by setting: under setting [1], 100 to 1000 nM; under setting [2], 779 nM.

As for `Cc1ccc2c(c1)C(O)(C(F)(F)F)c1ccccc1-2` (stereo not drawn) [compound 3], the IC50 is, setting by setting: under setting [1], more than 1000 nM; under setting [2], 1570 nM.

Turning to `CN(C)C(=O)C1CCN(C(=O)c2ccc3c(c2)C(O)(C(F)(F)F)c2ccccc2-3)C1` (stereo not drawn) [compound 229], the IC50 by setting is: under setting [1], 100 to 1000 nM; under setting [2], 552 nM.

With `Cn1cc(-c2cc(OCCCO)cc3c2-c2ccccc2C3(O)C(F)(F)F)cn1` (stereo not drawn) [compound 453], the IC50 is, setting by setting: under setting [1], less than 100 nM; under setting [2], 28 nM.

Regarding `OC1(C(F)(F)F)c2ccccc2-c2ccc(OC3CCCCC3)cc21` (stereo not drawn) [compound 260], the IC50 is, setting by setting: under setting [1], more than 1000 nM; under setting [2], 2810 nM.

For the molecule `Cn1cc(-c2cc(C(=O)N3CCC(O)C3)cc3c2-c2ccccc2C3(O)C(F)(F)F)cn1` (stereo not drawn) [compound 376], the IC50 was less than 100 nM under setting [1] and 85 nM under setting [2].

With `O=C1CC[C@H](COc2ccc3c(c2)C(O)(C(F)(F)F)c2ccccc2-3)N1` (stereo partly drawn) [compound 445], the IC50 is 100 to 1000 nM under setting [1] and 605 nM under setting [2].

Regarding `O=C(O)CCn1cc(-c2ccc3c(c2)C(O)(C(F)(F)F)c2cccc(CO)c2-3)cn1` (stereo not drawn) [compound 600], the IC50 was more than 1000 nM under setting [5] and more than 1000 nM under setting [2].

Take `O=C(c1ccc2c(c1)C(O)(C(F)(F)F)c1ccccc1-2)C1CCCC1` (stereo not drawn) [compound 109]: the IC50 runs as follows: under setting [1], more than 1000 nM; under setting [2], 1320 nM.

On to `CCOc1ccc2c(c1)-c1ccccc1C2(O)C(F)(F)F` (stereo not drawn) [compound 67], for which the IC50 under setting [1] is more than 1000 nM and the IC50 under setting [2] was found to be 4200 nM.

On to `O=C(c1cc(-c2cnn(CCO)c2)c2c(c1)C(O)(C(F)(F)F)c1ccccc1-2)N1CCCC1` (single isomer, unassigned) [compound 657], for which the IC50 by setting is: under setting [4], less than 100 nM; under setting [2], 20 nM.

For the molecule `O=C1CCCN1CCOc1cc(CO)c2c(c1)C(O)(C(F)(F)F)c1ccccc1-2` (stereo not drawn) [compound 583], the IC50 reads like this: under setting [1], less than 100 nM; under setting [2], 64 nM.

As for `OC[C@H](O)Cn1cc(-c2cc(F)cc3c2-c2ccccc2C3(O)C(F)(F)F)cn1` (single isomer, unassigned) [compound 566], the IC50 by setting is: under setting [1], less than 100 nM; under setting [2], 21 nM.

Consider `CC(C)c1ccc2c(c1)C(O)(C(F)(F)F)c1ccccc1-2` (stereo not drawn) [compound 71], for which the IC50 runs as follows: under setting [1], more than 1000 nM; under setting [2], 10200 nM.

As to `Cn1cc(-c2cc(O)cc3c2-c2ccccc2C3(O)C(F)(F)F)cn1` (stereo not drawn) [compound 564], the IC50 under setting [1] was 100 to 1000 nM and the IC50 under setting [2] came out at 105 nM.

For the molecule `NC(=O)Cn1cc(-c2cc(OCCC34CC5CC(CC(O)(C5)C3)C4)cc3c2-c2ccccc2C3(O)C(F)(F)F)cn1` (single isomer, unassigned) [compound 541], the IC50 is, setting by setting: under setting [1], less than 100 nM; under setting [2], 15 nM.

`NC(=O)C1CCN(C(=O)c2ccc3c(c2)C(O)(C(F)(F)F)c2ccccc2-3)C1` (stereo not drawn) [compound 226]: the IC50 was more than 1000 nM under setting [1] and 1140 nM under setting [2].
